Experimental data reported in US6340755B1, “5H-Pyrano[2,3-d: 6,5-d']dipyrimidine derivatives having an antibacterial, antiviral and immuno-modulating activity” (Natural Drug Sciences LLC, priority 2000, dated 2002).

Assays:
[1] = tested on: herpes simplex type I (VPG-I/Leningrad/248/88); assay: Activity on herpes simplex virus: cytopathic action of the virus on Vero cells; format: cell-based; settings: 36 hours; for number of cells in 100 fields (unchanged cells): cell control 12000
Method: (§1) The antiviral activity was studied relative to the virus herpes simplex type I (VPG-I/Leningrad/248/88) by a standard method. The virus was grown on a reinoculated Vero cell culture obtained from the cell culture bank of the Institute of Cytology of the Russian Academy of Sciences.
(§2) To cells grown on medium RPMI-1640 with 10% calf serum and placed in the wells of a 96-well plate, the virus was added to give a final concentration of 10 particles/ml and the claimed compounds dissolved in DMSO were added to give a final concentrations of 100, 10, and 1 mg/l. We used 5 individual wells for every concentration tested. The plate was incubated for 60 min at 38° C. in a CO2 incubator. After incubation the virus was removed and new medium was added that contained the claimed compounds in the test concentrations.
The results were evaluated according to the existence of a cytopathic action of the virus on the cells after 36 hours of incubation at 38° C. in the CO2 incubator.
The following controls were used in the experiment:
3. Control of antiviral activity of an antiviral preparation—acylcovir.
To access the cytopathic effect of the virus, we counted the number of unchanged cells in 100 fields formed by a specialized grid on the eyepiece of the inversion microscope.

[2] = tested on: primary culture of human lymphocytes; assay: Interferon-inducing activity in primary culture of human lymphocytes (immunoenzyme IFN determination); format: cell-based; design: unit of the concentration uncertain; settings: 24 hours of incubation
Method: Interferon synthesis induction by the claimed preparations was conducted on a primary culture of human lymphocytes (the cells in the human body are the main producers of interferon). To obtain a culture of the lymphocytes we used fresh blood (12 hours after collection) from healthy […] (not from the second group).
The lymphocyte concentration was determined after staining with methyl blue and the number of cells in the Goryaev chamber was calculated. […] The final concentration of the lymphocytes in the induction mixture was 3·10^6 cells/ml. The following controls were processed in parallel with the test samples:
The control and the experimental samples were incubated for 24 hours at 37° C. Following incubation the samples were centrifuged at 2000 g to settle out the cellular elements and the INF-containing supernatant was taken from the samples and analyzed for INF content. The cell residue was resuspended in the same volume of nutrient medium, stained with a vital dye—trypan blue—and the number of cells in the Goryaev chamber was calculated (as described above) to determine the cytotoxic activity of the preparations.
For the quantitative determination of INF in the control and experimental samples we used the ProCon IF2 Plus immunoenzyme test system sold by TOO Proteinovyi Kontur. To determine the quantity of interferon s in the sample we used a solid-phase immunoenzyme method utilizing horseradish peroxidase as the enzyme indicator. The activity of the bound peroxidase was measured using an automated photometer at a wavelength of 450 nm for the microplanchets with a microprocessor. […] On the basis of the results obtained we plotted a calibration curve that allowed us to obtain data expressed in International Units (IU) from the microprocessor of the automated photometer. The results of the analysis are expressed in IU of activity of INF per ml in the given induction system containing 3·10^6 lymphocytes/ml. Every experimental and control point was studied in 4 parallel runs.
The results obtained were analyzed statistically using the t-test and the confidence interval at p=0.05 was calculated. Analysis of the convergence of the results of the parallel tests were performed.

[3] = tested on: herpes simplex type I (VPG-I/Leningrad/248/88); assay: Activity on herpes simplex virus: cytopathic action of the virus on Vero cells; format: cell-based; settings: 50 mg/l, 36 hours
[4] = Acute toxicity (LD50) in mice; format: in vivo; settings: non-linebred white, mouse, in vivo, iv; mice 18-20 g; by mouth or intravenously; observation period 14 days
Method: Acute toxicity was determined on non-linebred white mice weighing 18-20 g. Emulsions of certain of the claimed compounds were prepared in a range of concentrations: 1500, 700, 500, 100, 20 and 5 μg/kg. Five animals were used to study each specific concentration of a compound. The preparation was administered once a day by mouth or intravenously. The observation period was 14 days On days 1, 8 and 15 the animals in every group were weighed. For a control we used animals who received the emulsion without the test compounds.
All animals, both that died in the course of the experiment and those that survived to the end of the experiment, were opened to allow macroscopic examination of internal organs.
In the course of the experiment no loss of weight was observed or any change in behavior or external appearance, nor was there any loss of life. Based on the results of the macroscopic examination of internal organs of the animals in the test and the control groups, no pathological findings were made (Table 7).

C. trachomatis D323 = assay: Activity on Chlamydia trachomatis in McCoy and L929 cell cultures; format: cell-based; settings: 48 hours; for number of cells in 100 fields (unchanged cells): cell control 8000, infected cell control 6400
Method: The antimicrobial activity of the claimed compounds was studied on C. trachomatis […]-a standard strain from the collection of the Department of Microbiology of the Pavlov St.-Petersburg State University. This strain was isolated from a patient with […] urethritis. […] In the work reported here we used McCoy and L929 cell cultures obtained from the Institute of Cytology of the Russian Academy of Sciences. The cells were grown in flasks of neutral glass in RPMI-1640 medium with an addition of 10% fetal calf serum. The experiment was placed in glass (toxicity-free) flat-bottomed flasks and covered with glass. The cells were introduced into the medium in a final concentration of 1·10 cells/ml. […] The sample was centrifuged at 2400 g for 60 min at room temperature and incubated at 37° C. for 2 hours. […] A parallel series of samples was run using medium without the cycloheximide in order to avoid its influence on the test substances. The samples were incubated for 48 hours in a CO2 incubator. […] The results were evaluated from the detection of chlamydia cytoplasmatic inclusion by an immunoenzyme method (MicroTrac Chlamydia trachomatis Direct Specimen Test) and from chlamydia antigens using CylaMonoScreen (Russian-British Joint Venture, 66 Regent's Park Road, London NW 1 7SX).

[5] = tested on: McCoy and L929 cell cultures; assay: Control of the test compounds on toxicity relative to cell cultures in the chlamydia experiment; format: cell-based
Method: In the work reported here we used McCoy and L929 cell cultures obtained from the Institute of Cytology of the Russian Academy of Sciences. The cells were grown in flasks of neutral glass in RPMI-1640 medium with an addition of 10% fetal calf serum. The experiment was placed in glass (toxicity-free) flat-bottomed flasks and covered with glass. The cells were introduced into the medium in a final concentration of 1·10 cells/ml. After a monolayer was obtained, standard infectious doses of chlamydia that had been maintained in a frozen state at −70° C. were added to test tubes. […] The sample was centrifuged at 2400 g for 60 min at room temperature and incubated at 37° C. for 2 hours. […] A parallel series of samples was run using medium without the cycloheximide in order to avoid its influence on the test substances. The samples were incubated for 48 hours in a CO2 incubator.

Vero cell culture = assay: Control of compounds (toxicity of compounds) in the herpes experiment; format: cell-based; settings: Vero cells
Method: as §1
as §2, with “the claimed compounds dissolved in DMSO were added to give a final concentrations of 100, 10, and 1 mg/l.” left out
4. Control of compounds (toxicity of compounds).

Row | Compound | percent protection of the cells against the virus compared to the cell culture control ([1]; 10 mg/l) | number of cells in 100 fields (unchanged cells) ([1]; 10 mg/l) | Interferon-inducing activity of the drug; content of INF in induction mixture ([2]; 1 (unit uncertain)) | Interferon-inducing activity of the drug; content of INF in induction mixture ([2]; 10 (unit uncertain)) | Interferon-inducing activity of the drug; content of INF in induction mixture ([2]; 100 (unit uncertain)) | percent protection of the cells against the virus compared to the cell culture control [3] | number of cells in 100 fields (unchanged cells) ([3]; cell control 12000) | LD50 at 14 days [4] | percent protection of the cells against infection (C. trachomatis D323; 30 mg/l) | number of cells in 100 fields (unchanged cells) (C. trachomatis D323; 30 mg/l) | percent protection of the cells against infection (C. trachomatis D323; 100 mg/l) | number of cells in 100 fields (unchanged cells) (C. trachomatis D323; 100 mg/l) | percent protection of the cells against the virus compared to the cell culture control ([1]; 100 mg/l) | number of cells in 100 fields (unchanged cells) ([1]; 100 mg/l) | cytotoxicity of compound ([5]; 30 mg/l) | cytotoxicity of compound ([5]; 100 mg/l) | cytotoxicity of compound (Vero cell culture; 50 mg/l) | cytotoxicity of compound (Vero cell culture; 100 mg/l)
1 | Nc1nc2c(ncn2COCCO)c(=O)[nH]1 [Acyclovir, reference compound] | 80% | 9600 | – | – | – | – | – | – | – | – | – | – | – | – | – | – | – | –
2 | O=[N+]([O-])c1ccc(C2c3c(O)nc(O)nc3Oc3nc(O)nc(O)c32)cc1 [I, 2,4,6,8-Tetrahydroxy-5-(p-nitrophenyl)-5H-pyrano[2,3-d:6,5-d′]dipyrimidine] | 60% | 7200 | 8.0 ± 0.8 IU/3 · 10^4 lymp/ml | 28.0 ± 1.5 IU/3 · 10^4 lymp/ml | 80.0 ± 1.2 IU/3 · 10^4 lymp/ml | 70% | 8400 | 1600 mg/kg | 70% | 7520 | 80% | 7640 | 80% | 9600 | – | – | – | –
3 | Clc1nc(Cl)c2c(n1)Oc1nc(Cl)nc(Cl)c1C2c1ccccc1 [II, 5-Phenyl-2,4,6,8-tetrachloro-5H-pyrano[2,3-d:6,5-d′]dipyrimidine] | – | – | 2.0 ± 0.4 IU/3 · 10^4 lymp/ml | 16.0 ± 0.8 IU/3 · 10^4 lymp/ml | 40.0 ± 1.4 IU/3 · 10^4 lymp/ml | – | – | – | – | – | – | – | – | – | cytotoxic | cytotoxic | Cytotoxic | Cytotoxic
4 | Oc1nc(O)c2c(n1)Oc1nc(O)nc(O)c1C2c1ccc(I)cc1 [III] | – | – | 56.5 ± 1.0 IU/3 · 10^4 lymp/ml | 112.6 ± 2.0 IU/3 · 10^4 lymp/ml | 243.2 ± 1.0 IU/3 · 10^4 lymp/ml | – | – | – | – | – | – | – | 40% | 4800 | – | – | – | –
5 | Oc1nc(O)c2c(n1)Oc1nc(O)nc(O)c1C2 [IV] | – | – | 3.8 ± 1.5 IU/3 · 10^4 lymp/ml | 29.9 ± 2.0 IU/3 · 10^4 lymp/ml | 74.0 ± 1.8 IU/3 · 10^4 lymp/ml | – | – | – | 40% | 7040 | – | – | – | – | – | cytotoxic | – | Cytotoxic
6 | O=[N+]([O-])c1ccc(C2c3c(O)nc(S)nc3Oc3nc(S)nc(O)c32)cc1 [IX, 4-6-Dihydroxy-2,8-dimercapto-5-(p-nitrophenyl)-5H-pyrano[2,3-d:6,5-d′]dipyrimidine] | – | – | 6.8 ± 2.0 IU/3 · 10^4 lymp/ml | 28.0 ± 2.5 IU/3 · 10^4 lymp/ml | 64.0 ± 1.8 IU/3 · 10^4 lymp/ml | – | – | – | – | – | 60% | 7360 | 40% | 4800 | – | – | – | –
7 | COc1nc(O)nc2c1C(c1ccc([N+](=O)[O-])cc1)c1c(OC)nc(O)nc1O2 [V, 2,8-Dihydroxy-4,6-dimethoxy-5-(4-nitrophenyl)-5H-pyrano[2,3-d:6,5-d′]dipyrimidine] | – | – | 10.5 ± 2.5 IU/3 · 10^4 lymp/ml | 50.6 ± 1.8 IU/3 · 10^4 lymp/ml | 108.9 ± 2.0 IU/3 · 10^4 lymp/ml | – | – | – | – | – | – | – | 50% | 6000 | – | cytotoxic | – | –
8 | Oc1nc(O)c2c(n1)Oc1nc(O)nc(O)c1C2c1ccc(Br)cc1 [VII] | – | – | 5.6 ± 1.6 IU/3 · 10^4 lymp/ml | 10.6 ± 1.8 IU/3 · 10^4 lymp/ml | 22.2 ± 1.4 IU/3 · 10^4 lymp/ml | – | – | – | – | – | – | – | 30% | 3600 | – | cytotoxic | – | –
9 | Oc1nc(O)c2c(n1)Oc1nc(O)nc(O)c1C2c1ccc(Cl)cc1 [VI] | – | – | 6.5 ± 1.4 IU/3 · 10^4 lymp/ml | 36.9 ± 1.2 IU/3 · 10^4 lymp/ml | 92.2 ± 2.1 IU/3 · 10^4 lymp/ml | – | – | – | – | – | 15% | 6560 | 50% | 6000 | – | – | – | –
